{"source": "paper PMC7262662", "about": "(BioMed Research International, 2020)", "key": {"Cytotoxicity assay (MTT)": {"experiment": "Cytotoxicity assay (MTT)", "type": "cell-based, feline", "details": "cat", "description": "(§1) CrFK cells at a density of 2 × 10^4 were incubated in 96-well culture plates for 24 h at 37°C. Then, the cells were washed with PBS. […] A colorimetric MTT assay was performed. Briefly, 20 μL 5 mg/mL MTT solution was added to each well and incubated for 2 h at 37°C. Then, 170 μL solution was removed from each well; subsequently, 100 μL DMSO was added to dissolve the formazan crystals. The plate was then incubated for 1 h before optical density (OD) measurement at 570 nm using a plate reader (BioTek EL800, BioTek, Winooski, VT, USA).\n(§2) The relative cell viability (%) of CrFK cells after treatment was calculated using the formula (OD570 (treated cells)/OD570 (control cells)) × 100. The median cytotoxic concentration (CC50) is the concentration that reduces the absorbance of treated cells to 50% with respect to the cell controls. The CC50 of the compounds was calculated by regression analysis in SPSS software version 22.0 (IBM, Chicago, IL, USA)."}, "CrFK cells": {"test_system": "CrFK cells", "experiment": "Cytotoxicity assay (MTT)", "type": "cell-based, feline", "details": "CrFK cells; MTT; tested 1 to 250 μg/mL", "description": "as §1, §2"}, "FIPV strain WSU 79-1146": {"test_system": "FIPV strain WSU 79-1146", "experiment": "Cytopathic effect inhibition assay (time of addition, MTT)", "type": "cell-based, feline infectious peritonitis virus", "description": "The cytopathic effect (CPE) inhibition assay with slight modifications was used as previously described. […] In pretreatment, the compounds were included in the cell culture medium for 8 h and were removed prior to virus infection. In cotreatment, the compounds were mixed with virus in the medium, added simultaneously to the cells, and left on the cells throughout. For posttreatment, the compounds were added to the cells 2 h postinfection (hpi) and remained throughout the time of infection. […] After incubation at 37°C for 48 and 72 h, the cell viability was determined by MTT.\nThe percentage of protection was calculated based on the OD using the following formula: (3) Percentage of protection %=OD570 T−OD570 V/OD570 C−OD570 V×100, where T is the treated sample, V is the virus-infected control, and C is the negative control.\nThe median effective concentration (EC50) is the concentration of compound required to achieve 50% protection against virus-induced CPE."}, "[1]": {"experiment": "Pharmacokinetics study in healthy cats (plasma curcumin by HPLC)", "type": "in vivo", "details": "for Curcumin content in plasma: any interval, not detected, below detection limit of HPLC; for Tmax / Cmax / AUC(0-t): po, 250 mg/kg; for Cmax: plasma curcumin", "description": "Single-dosing (s.i.d.) and two-dosing (b.i.d.) oral administration of curcumin and Cur-CS nanoparticle pharmacokinetics study spanning 24 h was performed in the cats, which weighed 1.5–3.5 kg. The cats were randomly divided into four groups, and each group contained four cats. […] Prior to and 0.5, 1, 2, 3, 4, 8, 12, and 24 h after the treatments, 1 mL blood was harvested via jugular, cephalic, or saphenous venipuncture into lithium heparinized tubes (BD, Franklin Lakes, NJ, USA). The plasma was immediately centrifuged at 500 g for 5 min at 4°C and stored at -80°C until use. The cats then underwent a 2-week washout and rest period prior to testing on the following treatment and series of blood collection. All the cats were neutered at the end of the study and adopted by the public. Curcumin was extracted from plasma using the polar solvent extraction method. Ethyl acetate (500 μL) was added to 200 μL plasma and vortexed for 10 min. The samples were centrifuged at 4000 g at 10°C for 15 min, and the upper ethyl acetate layer was transferred to a new 1.5 mL tube. The extraction was repeated twice and performed under dim light conditions to prevent the degradation of curcumin. […] An aliquot of a 20 μL sample was analysed for quantifying the curcumin in the plasma by HPLC. The curcumin was quantified using a Series 1200 Quaternary HPLC system (Agilent Technologies, Santa Clara, CA, USA) with an UV-Vis detector equipped with an Eclipse Plus C18 column (Agilent Technologies). The HPLC system was first optimised as previously described and further adjusted to suitable settings. […] The flow rate of the mobile phase was maintained at 1 mL/min with an injection volume of 20 μL sample, where the column temperature was maintained at 35°C. The detector signal of the HPLC system for curcumin detection was adjusted to 425 nm. A 6-point calibration curve was prepared by serial dilution of 1 mg/mL curcumin stock solution in methanol. Curcumin concentrations (ng/mL) in the plasma were calculated based on the calibration curve. Time to reach maximum plasma concentration (Tmax) and maximum plasma concentration (Cmax) values were obtained directly from the measured data. The area under the curve from 0 to t (AUC0-t) was calculated using the linear-log trapezoidal method."}, "different cells": {"test_system": "different cells", "design": "method as in PMID 23658730, doi:10.4236/aim.2016.64027, PMID 20603153", "details": "ref [19], [60], [61]; cited from earlier work"}, "[2]": {"details": "plasma, oral 250 mg/kg, single dosing (s.i.d.)"}}, "note": "Read-outs that look alike come from different tables or passages of the source. Marks after values point to notes of the source that are not given here.", "data": [{"smiles": "COc1cc(/C=C/C(=O)CC(=O)/C=C/c2ccc(O)c(OC)c2)ccc1O", "note": "[Curcumin]", "values": [{"measurement": "CC50 at 24 h", "setting": "Cytotoxicity assay (MTT)", "result": 69.9, "unit": "µM"}, {"measurement": "CC50 at 48 h", "setting": "Cytotoxicity assay (MTT)", "result": 59.1, "unit": "µM"}, {"measurement": "CC50 at 72 h", "setting": "Cytotoxicity assay (MTT)", "result": 35.5, "unit": "µM"}, {"measurement": "Concentration tolerated by the cells without cytotoxic effect", "setting": "CrFK cells", "result": 15000, "unit": "ng/mL"}, {"measurement": "SI", "setting": "FIPV strain WSU 79-1146; 48 h, CC50/EC50", "result": 3.72}, {"measurement": "EC50", "setting": "FIPV strain WSU 79-1146; Alphacoronavirus 1, 48 h, 50% protection against virus-induced CPE, 100 TCID50 FIPV in CrFK cells", "result": 15.9, "unit": "µM"}, {"measurement": "Percentage of protection", "setting": "FIPV strain WSU 79-1146; cotreatment, 48 h, 5 μM", "result": "21.98 ± 7.01^b %"}, {"measurement": "Percentage of protection", "setting": "FIPV strain WSU 79-1146; cotreatment, 48 h, 10 μM", "result": "40.08 ± 3.71^d %"}, {"measurement": "Percentage of protection", "setting": "FIPV strain WSU 79-1146; cotreatment, 48 h, 20 μM", "result": "55.95 ± 1.82^e %"}, {"measurement": "Percentage of protection", "setting": "FIPV strain WSU 79-1146; cotreatment, 48 h, 20 μM, listed as curcumin", "result": 56, "unit": "%"}, {"measurement": "Percentage of protection", "setting": "FIPV strain WSU 79-1146; cotreatment, 72 h, 5 μM", "result": "11.99 ± 3.43^b %"}, {"measurement": "Percentage of protection", "setting": "FIPV strain WSU 79-1146; cotreatment, 72 h, 10 μM", "result": "18.82 ± 1.93^c %"}, {"measurement": "Percentage of protection", "setting": "FIPV strain WSU 79-1146; cotreatment, 72 h, 20 μM", "result": "22.25 ± 2.05^c %"}, {"measurement": "Percentage of protection", "setting": "FIPV strain WSU 79-1146; posttreatment, 48 h, 5 μM", "result": "0.08 ± 0.13^a %"}, {"measurement": "Percentage of protection", "setting": "FIPV strain WSU 79-1146; posttreatment, 48 h, 10 μM", "result": "13.31 ± 3.93^b %"}, {"measurement": "Percentage of protection", "setting": "FIPV strain WSU 79-1146; posttreatment, 48 h, 20 μM", "result": "17.28 ± 0.78^bc %"}, {"measurement": "Percentage of protection", "setting": "FIPV strain WSU 79-1146; posttreatment, 72 h, 5 μM", "result": "0.99 ± 1.71^a %"}, {"measurement": "Percentage of protection", "setting": "FIPV strain WSU 79-1146; posttreatment, 72 h, 10 μM", "result": "2.59 ± 1.55^a %"}, {"measurement": "Percentage of protection", "setting": "FIPV strain WSU 79-1146; posttreatment, 72 h, 20 μM", "result": "2.13 ± 1.91^a %"}, {"measurement": "Percentage of protection", "setting": "FIPV strain WSU 79-1146; pretreatment, 48 h, 5 μM", "result": "0.38 ± 0.66^a %"}, {"measurement": "Percentage of protection", "setting": "FIPV strain WSU 79-1146; pretreatment, 48 h, 10 μM", "result": "3.87 ± 1.64^ab %"}, {"measurement": "Percentage of protection", "setting": "FIPV strain WSU 79-1146; pretreatment, 48 h, 20 μM", "result": "12.79 ± 2.27^c %"}, {"measurement": "Percentage of protection", "setting": "FIPV strain WSU 79-1146; pretreatment, 72 h, 5 μM", "result": "1.74 ± 1.06^ab %"}, {"measurement": "Percentage of protection", "setting": "FIPV strain WSU 79-1146; pretreatment, 72 h, 10 μM", "result": "1.16 ± 1.82^a %"}, {"measurement": "Percentage of protection", "setting": "FIPV strain WSU 79-1146; pretreatment, 72 h, 20 μM", "result": "5.12 ± 2.03^bc %"}, {"measurement": "Curcumin content in plasma", "setting": "[1]; 50 mg/kg", "result": "< 25", "unit": "ng/mL"}, {"measurement": "Curcumin content in plasma", "setting": "[1]; 100 mg/kg", "result": "< 25", "unit": "ng/mL"}, {"measurement": "Tmax", "setting": "[1]; cat, plasma, oral 250 mg/kg, b.i.d. study, as stated in the text (similar to s.i.d. profile)", "result": "2 to 4", "unit": "h"}, {"measurement": "AUC0-12 as share of AUC0-∞", "setting": "[1]; oral 250 mg/kg", "result": "more than 80%"}, {"measurement": "AUC(0-inf)", "setting": "[1]; [2]", "result": "1370 ± 112", "unit": "ng·h/mL"}, {"measurement": "Tmax", "setting": "[1]; [2]", "result": 3, "unit": "h"}, {"measurement": "Cmax", "setting": "[1]; [2]", "result": "220 ± 18.6", "unit": "ng/mL"}, {"measurement": "AUC(0-t)", "setting": "[1]; plasma, oral 250 mg/kg, single dosing (s.i.d.), read-out: AUC0-12", "result": "1140 ± 137", "unit": "ng·h/mL"}, {"measurement": "Cmax", "setting": "[1]; plasma, oral 250 mg/kg, two dosing (b.i.d.) 12 h apart", "result": "241 ± 27.1", "unit": "ng/mL"}, {"measurement": "Tmax", "setting": "[1]; plasma, oral 250 mg/kg, two dosing (b.i.d.), after the second dose", "result": 4, "unit": "h"}, {"measurement": "AUC(0-t)", "setting": "[1]; plasma, oral 250 mg/kg, two dosing (b.i.d.), read-out: AUC0-12", "result": "1510 ± 72.4", "unit": "ng·h/mL"}, {"measurement": "AUC(0-t)", "setting": "[1]; plasma, oral 250 mg/kg, two dosing (b.i.d.), read-out: AUC0-24", "result": "3100 ± 176", "unit": "ng·h/mL"}, {"measurement": "Exposure up to which no cytotoxic effect was observed", "setting": "different cells", "result": 30, "unit": "µM"}]}]}
